# Assay results published in patent US20120219638A1, “Method and Compositions for Treating Plant Infections” (priority 2006, published 2012).
# Experiments:
# [1] = test system: Erwinia amylovora (fire blight); experiment: Fire blight field trial on apple trees, one spray at full bloom: disease incidence and severity; type: in vivo; details: for Disease incidence (# of trees): standard, concentration not given, one spray at full bloom
# Method: Experimental design: Three cultivars, 8 treatments and four blocks. In each block there is one tree per cultivar per treatment (four trees per cultivar per treatment). Treatments are randomized within each cultivar in each block.
# When the forecast predicts favorable conditions, treatments were applied within 24-48 hours. Note: Oxysilver compound was a mixture of oxysilver bisulphate and oxysilver nitrate, with oxysilver bisulphate as the dominant compound.
# (§1) Three apple varieties (Gala, Fuji, and Golden) were treated with one spray of oxysilver at full-bloom. There were a total of eight treatments: 1. Untreated control, 2. Streptomycin standard, 3. Oxytetracycline standard, 4. Oxysilver compound 0.005% (w/v), 5. Oxysilver compound 0.05%, 6. Oxysilver compound 0.1%, 7. Oxysilver compound 0.5%, and 8. Oxysilver compound 1.0%. The trees were evaluated once a week for disease severity and phytotoxicity. Apples were harvested. Each treatment and variety combination was repeated four times. Disease incidence through blossom infections was monitored. Infections four weeks or so after bloom are not due to blossom infections and are not typically treated by growers.
# (§2) Disease incidence was recorded as the number of trees showing infections per treatment. Disease severity was rated as follows: 0—No disease, 1—One—two infected shoots, 2—Two-four infected shoots, 3—Four or more infected shoots or one systemic canker, 4—Two or more systemic cankers. […] After harvest, apples from untreated trees and trees treated with 0.005% and 1% oxysilver compound were sent to an independent lab for testing of silver accumulation in the fruit. For comparison, oxysilver compound was sprayed directly on some apples.
# (§3) Statistical analysis was done using SAS 9.3 Proc glimmix and Proc GLM.
# [2] = test system: apple varieties (Gala, Fuji, and Golden); experiment: Phytotoxicity of leaf and fruit on treated apple trees; type: in vivo; details: standard, concentration not given; for Phytotoxicity (leaf) (average): rating 0 (none) to 4 (50-100% of leaf area necrotic); for Phytotoxicity (fruit) (average): rating 0 (none) to 4 (severe deformation)
# Method: as §1, §2, §3
SMILES,"Disease severity compared with untreated control ([1]; all oxysilver treatments and streptomycin standard, p=0.05, systemic cankers in untreated control)",Disease incidence (# of trees) [1],Phytotoxicity (leaf) (average) [2],Phytotoxicity (fruit) (average) [2]
"[H]/N=C(/N)N[C@H]1[C@H](O)[C@@H](O)[C@H](O[C@@H]2O[C@@H](C)[C@](O)(C=O)[C@H]2O[C@@H]2O[C@@H](CO)[C@H](O)[C@@H](O)[C@@H]2NC)[C@@H](N/C(N)=N\[H])[C@@H]1O [Streptomycin, streptomycin]",significantly higher in the untreated control,1 ab # of trees,0 c,0 c
"CN(C)[C@@H]1C(O)=C(C(N)=O)C(=O)[C@@]2(O)C(O)=C3C(=O)c4c(O)cccc4[C@@](C)(O)[C@H]3[C@H](O)[C@@H]12 [Oxytetracycline, oxytetracycline]",–,1 ab # of trees,0 c,0 c
